Experimental data reported in patent US9572890B2, “Oral formulations of mitochondrially-targeted antioxidants and their preparation and use” (MITOTECH SA, priority 2011, dated 2017).

Tests used:
[1] = system: collagen-induced arthritis; assay: Collagen-induced arthritis (CIA); assay type: in vivo, Wistar rats; conditions: SkQ1 in water 250 nmol/kg per day from day 14 or day 24 after collagen injection
Experimental: Thirty Wistar rats with free food and water access were injected with complete Freund adjuvant and 250 mg type II collagen to induce CIA. Starting from 14 d and from 24 d after injection, two groups of 10 animals in each were daily fed with pharmaceutical form of SkQ1 in water comprising 250 nmol/kg body weight per day (groups “SkQ1 from day 14” and “SkQ1 from day 24”; Group “Control” received water without drugs).

[2] = Accelerated decay experiment of SkQ1H2/ascorbic acid powder; assay type: physicochemical; conditions: powder 95% ascorbic acid and 5% SkQ1H2
Experimental: SkQ1H2, a reduced quinole form of SkQ, was prepared as follows: 10 ml SkQ1H2 solution (with concentration 1 mg/ml) in ethanol was thoroughly mixed with 200 mg ascorbic acid and then vacuum dried.

endothelial cells = assay: TNFα-caused dysfunction of endothelial barrier (microscopy of VE-cadherin, beta-cathenin, F-actin); assay type: cell-based
LPS-induced septic shock = assay: LPS/D-GalN-induced septic shock, survival; assay type: in vivo, BALB/c mice
Experimental: Induction of the septic shock was performed as follows: 43 male BALB/c mice with free food and water access were divided onto 4 experimental groups. Group “K” got water without drugs. Groups “SkQ 50,” “SkQ 250,” and “SkQ 1250” were daily parenterally treated with pharmaceutical form of SkQ1 in water comprising 50 nmol/kg, 250 nmol/kg, and 1250 nmol/kg accordingly. After 3 weeks of SkQ1 treatment animals were intraperitonially injected with […] LPS and 700 mg/kg D-galactosamine (D-GalN) inducing septic shock leading to death of 50% of untreated control animals (LD50 dose). Death of animals were registered after 4 d of septic shock induction.

SkQ1 purity ([2]; after storage for 12 d at 60° C.): 95.1%
loss from the initial concentration of the active compound ([2]; calculated for storage for 1 year at 4° C.): approximately 3.5%
SkQ1 purity ([2]; initial): 98.7%
SMILES: CC1=C(C)C(=O)C(CCCCCCCCCC[P+](c2ccccc2)(c2ccccc2)c2ccccc2)=CC1=O [SkQ1]
number of animals with apparent inflammation (increased paw volumes) [1]: reduced
disassembling of intracellular contacts and cytoskeleton reorganization caused by TNFα (endothelial cells): prevented
survival of mice following LPS/D-GalN treatment (LPS-induced septic shock; SkQ1 in water 50, 250, 1250 nmol/kg daily parenterally for 3 weeks, death registered after 4 d): significantly improved
survival, significance of the effect (LPS-induced septic shock; dose of 50 nmol/kg, p=0.03): statistically significant effect
